≈ marks a conversion by molar mass, not a printed value.
Experiments:
[1] = tested on: Fusarium moniliforme (Fm); assay: In vitro pathogen growth inhibition assay, Fm; type: cell-based; conditions: Fusarium verticillioides; ≥90% growth inhibition; 48 hours; vs 2% DMSO control; read-out: Compound Concentration (ppm) sufficient for ≥90% inhibition of Fm
How it was run: (§1)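 Spores in 17% V8 liquid medium, or 1.5 mm Rs mycelial plugs in ¼ PDB, incubated with compound; final concentration checked by OD600 for precipitation. OD readings at 24 and 48 h, blank-subtracted, plus visual ratings; value is concentration giving ≥90% growth inhibition.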

Phakopsora pachyrhizi = assay: Foliar protection test for Asian soybean rust control; type: in vivo; conditions: foliar application to soybean (Glycine max AG4832), percent disease area evaluated 14 days later
Rhizoctonia solani (Rs) = assay: In vitro pathogen growth inhibition assay, Rs (mycelial plugs); type: cell-based; conditions: Rhizoctonia solani, 48 h, ≥90% growth inhibition; mycelial plugs; 48 hours; vs 2% DMSO control; read-out: Compound Concentration (ppm) sufficient for ≥90% inhibition of Rs
How it was run: (§2)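 Value reported is the compound concentration reaching ≥90% growth inhibition, from OD readings at 24 and 48 h after blank subtraction, confirmed visually. Inoculum was spores diluted in 17% V8 medium, except Rs, using 1.5 mm mycelial plugs in ¼ PDB; actual compound concentration corrected via OD600.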

Sphaerotheca fuliginea = assay: Foliar protection for cucumber powdery mildew control; type: in vivo; conditions: foliar spray on Cucumis sativus cv. Straight Eight, inoculated 24 hours after treatment, evaluated 7 days later
How it was run: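 Cucumber plants (cv. Straight Eight, 10 days old) sprayed to wetness on both leaf surfaces, then inoculated 24 h later by shaking sporulating stock plants over them. Held at 23–27 °C, 16 h light, 60% RH. Mildew colonization scored 7 days after inoculation, at compound concentrations of 10 ppm or lower.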

Diplodia maydis (Dm) = assay: In vitro pathogen growth inhibition assay, Dm; type: cell-based; conditions: Stenocarpella maydis, 48 h, ≥90% growth inhibition; 48 hours; vs 2% DMSO control; read-out: Compound Concentration (ppm) sufficient for ≥90% inhibition of Dm
How it was run: as §2

[2] = tested on: Mycosphaerella graminicola (synthetic Septoria tritici); assay: Foliar protection test for wheat septoria leaf blotch control; type: in vivo; conditions: foliar spray on Triticum aestivum cv. WinterHawk, inoculated 1 hour after treatment, evaluated 16 days later
Botrtyis cinerea (Bc) = assay: In vitro pathogen growth inhibition assay, Bc; type: cell-based; conditions: 48 h, ≥90% growth inhibition; 48 hours; vs 2% DMSO control; read-out: Compound Concentration (ppm) sufficient for ≥90% inhibition of Bc
How it was run: as §1

Fusarium graminearum = type: in vivo; conditions: spray on flowering Triticum aestivum cv. Samson, inoculated 24 hours after treatment, evaluated 14 days later
[3] = tested on: Blumeria graminis f. sp. hordei; assay: Foliar protection test for barley powdery mildew control; type: in vivo; conditions: foliar spray on Hordeum vulgare cv. Perry, inoculated 24 hours after treatment, evaluated 7 days later
How it was run: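 Six-day-old barley (cv. Perry) sprayed to wetness on both leaf sides; 24 h later inoculated by shaking spores from infected stock plants. Kept at 20 to 22° C, 70% relative humidity; mildew colonization assessed 7 days later.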

Septoria tritici (St) = assay: In vitro pathogen growth inhibition assay, St; type: cell-based; conditions: Zymoseptoria tritici, 48 h, ≥90% growth inhibition; 48 hours; vs 2% DMSO control; read-out: Compound Concentration (ppm) sufficient for ≥90% inhibition of St
How it was run: as §1

[4] = tested on: Fusarium virguliforme (Fv); assay: In vitro pathogen growth inhibition assay, Fv; type: cell-based; conditions: ≥90% growth inhibition, 48 hours, vs 2% DMSO control, read-out: Compound Concentration (ppm) sufficient for ≥90% inhibition of Fv
How it was run: as §2

[5] = tested on: Collectotrichum graminicola (Cg); assay: In vitro pathogen growth inhibition assay, Cg; type: cell-based; conditions: 48 h, ≥90% growth inhibition; 48 hours; vs 2% DMSO control; read-out: Compound Concentration (ppm) sufficient for ≥90% inhibition of Cg
How it was run: as §1

Puccinia triticina = assay: Foliar protection test for wheat leaf rust control; type: in vivo; conditions: foliar application to wheat (Triticum aestivum cv. Winterhawk), evaluated 10 days later
[6] = tested on: Phytophthora capsici (Pc); assay: In vitro pathogen growth inhibition assay, Pc; type: cell-based; conditions: 48 h, ≥90% growth inhibition, 48 hours, vs 2% DMSO control, read-out: Compound Concentration (ppm) sufficient for ≥90% inhibition of Pc
How it was run: as §2

SMILES	IC90 [1]	Asian Soybean Rust Control at a compound concentration of 25 ppm or lower (Phakopsora pachyrhizi)	IC90 (Rhizoctonia solani (Rs))	Cucumber Powdery Mildew Control at a compound concentration of 10 ppm or lower (Sphaerotheca fuliginea)	IC90 (Diplodia maydis (Dm))	Septoria Leaf Blotch Control at a compound concentration of 25 ppm or lower [2]	IC90 (Botrtyis cinerea (Bc))	Wheat Fusarium Head Blight Control at a compound concentration of 25 ppm or lower (Fusarium graminearum)	Barley Powdery Mildew Control at a compound concentration of 10 ppm or lower [3]	IC90 (Septoria tritici (St))	IC90 [4]	IC90 [5]	Wheat Leaf Rust Control at a compound concentration of 10 ppm or lower (Puccinia triticina)	IC90 [6]
CCOC(=O)c1sc2c(c1C)c(=O)n(C(C)(C)C(=O)NC(C)C)c(=O)n2C[C@H](OCCS(C)(=O)=O)c1cc(F)ccc1OC [Compound I-285, (R)-ethyl-1-(2-(5-fluoro-2-methoxyphenyl)-2-(2-(methylsulfonyl)ethoxy)ethyl)-3-(1-(isopropylamino)-2-methyl-1-oxopropan-2-yl)-5-methyl-2,4-dioxo-1,2,3,4-tetrahydrothieno[2,3-d]pyrimidine-6-carboxylate]	0.4 µg/mL (≈ 0.61 µM)	C (from 25 to 49% control of Asian soybean rust)	0.4 µg/mL (≈ 0.61 µM)	AA (≥85% control of cucumber powdery mildew)	≥ 2 µg/mL	C (from 25 to 49% control of wheat septoria leaf blotch)	2 µg/mL (≈ 3.05 µM)	C (from 25 to 49% control of wheat fusarium head blight)	A (from 70% to 84% control of barley powdery mildew)	≥ 50 µg/mL	2 µg/mL (≈ 3.05 µM)	0.4 µg/mL (≈ 0.61 µM)	AA (≥85% control of wheat leaf rust)	50 µg/mL (≈ 76.2 µM)
COc1ccc(F)cc1[C@H](Cn1c(=O)n(C(C)(C)C(=O)NC(C)C)c(=O)c2c(C)c(-n3nccn3)sc21)OC(C)=O [Compound I-323, (R)-1-(5-fluoro-2-methoxyphenyl)-2-(3-(1-(isopropylamino)-2-methyl-1-oxopropan-2-yl)-5-methyl-2,4-dioxo-6-(2H-1,2,3-triazol-2-yl)-3,4-dihydrothieno[2,3-d]pyrimidin-1(2H)-yl)ethyl acetate]	0.08 µg/mL	AA (≥85% control of Asian soybean rust)	0.08 µg/mL	AA (≥85% control of cucumber powdery mildew)	≥ 0.4 µg/mL	AA (≥85% control of wheat septoria leaf blotch)	0.4 µg/mL	C (from 25 to 49% control of wheat fusarium head blight)	AA (≥85% control of barley powdery mildew)	> 50 µg/mL	0.08 µg/mL	0.4 µg/mL	AA (≥85% control of wheat leaf rust)	> 50 µg/mL
CCc1ccc(F)cc1[C@H](Cn1c(=O)n(C(C)(C)C(=O)NC(C)C)c(=O)c2c(C)c(-n3nccn3)sc21)OCCO [Compound I-246, (R)-2-(1-(2-(2-ethyl-5-fluorophenyl)-2-(2-hydroxyethoxy)ethyl)-5-methyl-2,4-dioxo-6-(2H-1,2,3-triazol-2-yl)-1,4-dihydrothieno[2,3-d]pyrimidin-3 (2H)-yl)-N-isopropyl-2-methylpropanamide]	0.08 µg/mL (≈ 0.136 µM)	AA (≥85% control of Asian soybean rust)	0.1 µg/mL (≈ 0.17 µM)	AA (≥85% control of cucumber powdery mildew)	0.4 µg/mL (≈ 0.682 µM)	A (from 70% to 84% control of wheat septoria leaf blotch)	0.4 µg/mL (≈ 0.682 µM)	B (from 50 to 69% control of wheat fusarium head blight)	A (from 70% to 84% control of barley powdery mildew)	≥ 2 µg/mL	0.08 µg/mL (≈ 0.136 µM)	0.08 µg/mL (≈ 0.136 µM)	A (from 70% to 84% control of wheat leaf rust)	10 µg/mL (≈ 17 µM)

— patent publication US10941157B2, “Pesticidal compositions and uses thereof” (Gilead Apollo, LLC, priority 2015, dated 2021)
